# Read-outs that look alike come from different tables or passages of the source.
# Key:
# [1] = tested on: SMN2 minigene (full length SMN2 minigene mRNA containing SMN2 exon 7); experiment: SMN2 minigene mRNA splicing RT-qPCR assay in cultured cells; format: cell-based, human; details: Homo sapiens, HEK293-H, read-out: EC1.5x for production of full length SMN2 mRNA
# Summary of the method: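 Full-length SMN2 minigene mRNA (exon 7 included), minigene-specific and not endogenous SMN, quantified by RT-qPCR multiplexed with GAPDH in stably transfected HEK293H cells after 24 h compound exposure at 37° C. Abundance from efficiency-corrected Ct, normalized to GAPDH and vehicle; EC1.5x reported as star bins.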
# Smn protein = Smn protein assay in cultured cells (SMN HTRF); format: cell-based, human; details: 48 hours; for EC1.5x (concentration giving 1.5-fold Smn protein increase): SMA Type 1 patient fibroblast cells (GM03813), 7-point concentration curve, SMN HTRF, concentration producing 1.5 times Smn protein vs DMSO vehicle control, read-out: EC1.5x for Smn protein expression; for maximum fold (Fold) increase of Smn protein: SMA patient fibroblast cells, 7-point concentration data, fold increase relative to vehicle control (SMN HTRF)
# Summary of the method: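 Smn in SMA fibroblast lysates, measured by anti-SMN HTRF after 48 h compound exposure; EC1.5x from fold change over vehicle.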
# [2] = HEK293H cells stably transfected with SMN2-A minigene, 24 hours, 7-point concentration curve, 1.5-fold relative to vehicle-treated cells
structure (smiles),measurement,setting,value
"Cc1nccn2cc(-c3cc4ccc(N5CCN(C)CC5)cc4oc3=O)nc12 [Compound 551, 3-(8-methylimidazo[1,2-a]pyrazin-2-yl)-7-(4-methylpiperazin-1-yl)-2H-chromen-2-one]",EC (1.5-fold),[1]; [2],0.3 to 1 µM
same,EC1.5x (concentration giving 1.5-fold Smn protein increase),Smn protein,< 300 nM
same,maximum fold (Fold) increase of Smn protein,Smn protein,*** (fold increase between >1.35 and ≤1.5)
same,melting point,,221 to 222 °C
"Cc1cn2cc(-c3cc4ccc(C5CCN(CCCF)CC5)cc4oc3=O)nc2c(C)n1 [Compound 906, 3-(6,8-dimethylimidazo[1,2-a]pyrazin-2-yl)-7-[1-(3-fluoropropyl)piperidin-4-yl]-2H-chromen-2-one]",EC (1.5-fold),[1]; [2],< 0.1 µM
same,EC1.5x (concentration giving 1.5-fold Smn protein increase),Smn protein,< 300 nM
same,maximum fold (Fold) increase of Smn protein,Smn protein,***** (fold increase >1.65)
same,melting point,,195 to 200 °C
"O=c1oc2cc(N3CCCNCC3)ccc2cc1-c1cn2ccsc2n1 [Compound 206, 7-(1,4-diazepan-1-yl)-3-(imidazo[2,1-b][1,3]thiazol-6-yl)-2H-chromen-2-one]",EC (1.5-fold),[1]; [2],0.3 to 1 µM
same,maximum fold (Fold) increase of Smn protein,Smn protein,** (fold increase between >1.2 and ≤1.35)
same,melting point,,225 to 230 °C
"Cc1cn2cc(-c3cc4ccc(N[C@@H]5CCN(CCO)C5)cc4oc3=O)nc2c(C)n1 [Compound 732, 3-(6,8-dimethylimidazo[1,2-a]pyrazin-2-yl)-7-{[(3R)-1-(2-hydroxyethyl)pyrrolidin-3-yl]amino}-2H-chromen-2-one]",EC (1.5-fold),[1]; [2],< 0.1 µM
same,EC1.5x (concentration giving 1.5-fold Smn protein increase),Smn protein,< 300 nM
same,maximum fold (Fold) increase of Smn protein,Smn protein,*** (fold increase between >1.35 and ≤1.5)
same,melting point,,211 to 219 °C
"COc1ccc(-c2cc3c(F)cc(N4CCNCC4)cc3oc2=O)cc1OC [Compound 404, 3-(3,4-dimethoxyphenyl)-5-fluoro-7-(piperazin-1-yl)-2H-chromen-2-one]",EC (1.5-fold),[1]; [2],0.3 to 1 µM
same,EC1.5x (concentration giving 1.5-fold Smn protein increase),Smn protein,1000 to 3000 nM
same,maximum fold (Fold) increase of Smn protein,Smn protein,**** (fold increase between >1.5 and ≤1.65)
same,melting point,,240 °C (dec.)
"Cc1nccn2cc(-c3cc4ccc(N5CCN6CCC[C@H]6C5)cc4oc3=O)cc12 [Compound 642, 7-[(8aS)-hexahydropyrrolo[1,2-a]pyrazin-2(1H)-yl]-3-(1-methylpyrrolo[1,2-a]pyrazin-7-yl)-2H-chromen-2-one]",EC (1.5-fold),[1]; [2],< 0.1 µM
same,maximum fold (Fold) increase of Smn protein,Smn protein,** (fold increase between >1.2 and ≤1.35)
same,melting point,,175 to 178 °C
"CN(CCO)Cc1ccc2cc(-c3cn4ccsc4n3)c(=O)oc2c1 [Compound 345, 7-{[(2-hydroxyethyl)(methyl)amino]methyl}-3-(imidazo[2,1-b][1,3]thiazol-6-yl)-2H-chromen-2-one]",EC (1.5-fold),[1]; [2],1 to 3 µM
same,EC1.5x (concentration giving 1.5-fold Smn protein increase),Smn protein,3000 to 10000 nM
same,maximum fold (Fold) increase of Smn protein,Smn protein,*** (fold increase between >1.35 and ≤1.5)
same,melting point,,145 to 148 °C
"COc1ccc(-c2cc3ccc(N4CCN[C@H](C)C4)cc3oc2=O)c(OC)c1 [Compound 466, 3-(2,4-dimethoxyphenyl)-7-[(3R)-3-methylpiperazin-1-yl]-2H-chromen-2-one]",EC (1.5-fold),[1]; [2],3 to 30 µM
same,maximum fold (Fold) increase of Smn protein,Smn protein,* (maximum fold increase of ≤1.2)
same,melting point,,101 to 103 °C
"Cc1cc2cc(-c3cc4ccc(N5CCN(C)[C@@H](C)C5)cc4oc3=O)oc2c(C)n1 [Compound 805, 3-(5,7-dimethylfuro[2,3-c]pyridin-2-yl)-7-[(3S)-3,4-dimethylpiperazin-1-yl]-2H-chromen-2-one]",EC (1.5-fold),[1]; [2],< 0.1 µM
same,EC1.5x (concentration giving 1.5-fold Smn protein increase),Smn protein,< 300 nM
same,maximum fold (Fold) increase of Smn protein,Smn protein,***** (fold increase >1.65)
same,melting point,,200 to 205 °C
"CN1CCN(c2ccc3cc(-c4nc5c(Cl)cccc5o4)c(=O)oc3c2)CC1 [Cpd 68, 3-(4-chloro-1,3-benzoxazol-2-yl)-7-(4-methylpiperazin-1-yl)-2H-chromen-2-one]",EC (1.5-fold),[1]; [2],1 to 3 µM
same,maximum fold (Fold) increase of Smn protein,Smn protein,** (fold increase between >1.2 and ≤1.35)
same,melting point,,229 to 231 °C
"Cc1cc(Cl)cn2cc(-c3cc4ccc(N5CCNCC5)cc4oc3=O)nc12 [Compound 263, 3-(6-chloro-8-methylimidazo[1,2-a]pyridin-2-yl)-7-(piperazin-1-yl)-2H-chromen-2-one]",EC (1.5-fold),[1]; [2],3 to 30 µM
same,maximum fold (Fold) increase of Smn protein,Smn protein,* (maximum fold increase of ≤1.2)
same,melting point,,224 to 233 °C
"Cc1cn2cc(-c3cc4c(F)cc(N5CCCN(C)CC5)cc4oc3=O)nc2c(C)n1 [Compound 614, 3-(6,8-dimethylimidazo[1,2-a]pyrazin-2-yl)-5-fluoro-7-(4-methyl-1,4-diazepan-1-yl)-2H-chromen-2-one]",EC (1.5-fold),[1]; [2],< 0.1 µM
same,EC1.5x (concentration giving 1.5-fold Smn protein increase),Smn protein,< 300 nM
same,maximum fold (Fold) increase of Smn protein,Smn protein,***** (fold increase >1.65)
same,melting point,,223 to 225 °C
"Cc1ccn2cc(-c3cc4ccc(N5CCN[C@H](C)C5)cc4oc3=O)nc2n1 [Compound 228, 3-(7-methylimidazo[1,2-a]pyrimidin-2-yl)-7-[(3R)-3-methylpiperazin-1-yl]-2H-chromen-2-one]",EC (1.5-fold),[1]; [2],0.1 to 0.3 µM
same,maximum fold (Fold) increase of Smn protein,Smn protein,** (fold increase between >1.2 and ≤1.35)
same,melting point,,297 to 300 °C
"C[C@H]1CN(c2ccc3cc(-c4ccccn4)c(=O)oc3c2)CCN1 [Compound 444, 7-[(3S)-3-methylpiperazin-1-yl]-3-(pyridin-2-yl)-2H-chromen-2-one]",EC (1.5-fold),[1]; 24 h,3 to 30 µM
same,maximum fold (Fold) increase of Smn protein,Smn protein,* (maximum fold increase of ≤1.2)
same,melting point,,145 to 147 °C
"Cc1cn2cc(-c3cc4ccc(N5C[C@@H]6CCN(C)[C@@H]6C5)cc4oc3=O)cc2c(C)n1 [Compound 729, 3-(1,3-dimethylpyrrolo[1,2-a]pyrazin-7-yl)-7-[(3aS,6aS)-1-methylhexahydropyrrolo[3,4-b]pyrrol-5(1H)-yl]-2H-chromen-2-one]",EC (1.5-fold),[1]; [2],< 0.1 µM
same,EC1.5x (concentration giving 1.5-fold Smn protein increase),Smn protein,1000 to 3000 nM
same,maximum fold (Fold) increase of Smn protein,Smn protein,*** (fold increase between >1.35 and ≤1.5)
same,melting point,,173 to 175 °C
"Cc1nc2ccc(-c3cc4ccc(N5CCN(C)CC5)cc4oc3=O)cc2s1 [Cpd 769, 3-(2-methyl-1,3-benzothiazol-6-yl)-7-(4-methylpiperazin-1-yl)-2H-chromen-2-one]",EC (1.5-fold),[1]; [2],0.3 to 1 µM
same,maximum fold (Fold) increase of Smn protein,Smn protein,** (fold increase between >1.2 and ≤1.35)
same,melting point,,215 to 217 °C
"C[C@H]1CN(c2ccc3cc(-c4ccc(F)cc4Cl)c(=O)oc3c2)CCN1 [Compound 510, 3-(2-chloro-4-fluorophenyl)-7-[(3S)-3-methylpiperazin-1-yl]-2H-chromen-2-one]",EC (1.5-fold),[1]; [2],3 to 30 µM
same,maximum fold (Fold) increase of Smn protein,Smn protein,* (maximum fold increase of ≤1.2)
same,melting point,,109 to 111 °C
"Cc1cn2cc(-c3cc4ccc(N5CCC(N(CCO)CCO)CC5)cc4oc3=O)nc2c(C)n1 [Compound 928, 7-{4-[bis(2-hydroxyethyl)amino]piperidin-1-yl}-3-(6,8-dimethylimidazo[1,2-a]pyrazin-2-yl)-2H-chromen-2-one]",EC (1.5-fold),[1]; [2],0.1 to 0.3 µM
same,maximum fold (Fold) increase of Smn protein,Smn protein,*** (fold increase between >1.35 and ≤1.5)
same,melting point,,209 to 212 °C
"Cc1cn2cc(-c3cc4ccc(OC5CCN(C(C)C)CC5)cc4oc3=O)nc2c(C)n1 [Compound 901, 3-(6,8-dimethylimidazo[1,2-a]pyrazin-2-yl)-7-{[1-(propan-2-yl)piperidin-4-yl]oxy}-2H-chromen-2-one]",EC (1.5-fold),[1]; [2],< 0.1 µM
same,EC1.5x (concentration giving 1.5-fold Smn protein increase),Smn protein,< 300 nM
same,maximum fold (Fold) increase of Smn protein,Smn protein,***** (fold increase >1.65)
same,melting point,,185 to 191 °C
"COc1ccn2cc(-c3cc4ccc(N5CCN[C@@H](C)C5)cc4oc3=O)nc2c1 [Compound 434, 3-(7-methoxyimidazo[1,2-a]pyridin-2-yl)-7-[(3S)-3-methylpiperazin-1-yl]-2H-chromen-2-one]",EC (1.5-fold),[1]; [2],1 to 3 µM
same,maximum fold (Fold) increase of Smn protein,Smn protein,** (fold increase between >1.2 and ≤1.35)
same,melting point,,250 to 256 °C
"CC(C)Oc1cccc(-c2cc3ccc(N4CCNCC4)cc3oc2=O)n1 [Cpd 385, 7-(piperazin-1-yl)-3-[6-(propan-2-yloxy)pyridin-2-yl]-2H-chromen-2-one]",EC (1.5-fold),[1]; [2],1 to 3 µM
same,maximum fold (Fold) increase of Smn protein,Smn protein,* (maximum fold increase of ≤1.2)
same,melting point,,177 to 180 °C
"Cc1ccn2cc(-c3cc4ccc(N5CCNC(C)(C)C5)cc4oc3=O)nc2c1 [Compound 215, 7-(3,3-dimethylpiperazin-1-yl)-3-(7-methylimidazo[1,2-a]pyridin-2-yl)-2H-chromen-2-one]",EC (1.5-fold),[1]; [2],1 to 3 µM
same,maximum fold (Fold) increase of Smn protein,Smn protein,* (maximum fold increase of ≤1.2)
same,melting point,,217 to 223 °C
"Cc1ccc2nc(-c3cc4ccc(O[C@@H]5CCNC5)cc4oc3=O)cn2c1.Cl.Cl [Compound 326, 3-(6-methylimidazo[1,2-a]pyridin-2-yl)-7-[(3R)-pyrrolidin-3-yloxy]-2H-chromen-2-one hydrochloride (1:2)]",EC (1.5-fold),[1]; [2],0.1 to 0.3 µM
same,maximum fold (Fold) increase of Smn protein,Smn protein,** (fold increase between >1.2 and ≤1.35)
same,melting point,,261 to 265 °C
"C[C@@H]1CN(c2ccc3cc(-c4nc5c(Cl)cccc5o4)c(=O)oc3c2)C[C@H](C)N1 [Compound 69, 3-(4-chloro-1,3-benzoxazol-2-yl)-7-[(3R,5S)-3,5-dimethylpiperazin-1-yl]-2H-chromen-2-one]",EC (1.5-fold),[1]; [2],0.1 to 0.3 µM
same,maximum fold (Fold) increase of Smn protein,Smn protein,* (maximum fold increase of ≤1.2)
same,melting point,,238 to 240 °C

# — patent publication USRE47689E1, “Compounds for treating spinal muscular atrophy” (PTC Therapeutics, Inc., priority 2011, dated 2019)
